Format in all cases: cell-based
Experiment [1] relates to A. nosocomialis strain M2. In words: FAST flow cytometry AST with PB-sQF, bacteria recovered from 10% human blood. Particulars: M2 spiked in 10% human blood, assayed within 8 hrs of simulated blood draw.
Protocol: Varied counts of bacteria were mixed with human blood and diluted 1:9 (v/v) with bacterial growth medium to desired bacterial concentrations (<10 CFU/mL final solution) and plated to independently confirm CFU/mL blood. Saponin was immediately added and the samples shaken for 15 minutes to achieve selective blood cell lysis. After hemolysis, bacteria were spun down and washed with PBS. […] This allowed comparison of fold distances among all samples as each is individually paired to its own control, as is each replicate.
To simulate a blood specimen from a patient with bacteremia, the isolates were grown, diluted to the desired CFU/mL in blood (ZenBio, Research Triangle Park, NC) and saponin was added to achieve the final diluted sample. Initial bacterial cultures were prepared using Luria-Bertani (LB) broth for (E. coli) or cation-adjusted Mueller-Hinton broth (CAMHB). The fresh bacterial cultures started from ˜0.05 optical density (OD) by inoculating a 6-mL fresh growth medium with overnight culture were grown in an incubator shaker (MaxQ 4000, Thermal Fisher Scientific, Waltham, MA) at 37° C. and 225 rpm. […] Bacterial densities were determined by plating onto LB plates. […]
Cytometric data were collected by BD LSRFortessa flow cytometer (Becton Dickinson, Franklin Lake, NY) equipped with a 100 mW, 488 nm laser for the scatter signal. […] Data were recorded with FACSDiVa provided by BD. […]
The test system of experiment [2] is 10% human blood samples without bacteria inoculation. Nature of the experiment: Antibiotic-treated 10% human blood only control (no bacteria), flow cytometry. The settings on record: 10% human blood without bacteria, around the resistance breakpoints of Enterobacteriaceae. The method, then:
FIGS. 6A-6D. Antibiotic-treated 10% human blood only results. Cytometric data with (FIG. 6A) Ampicillin (FIG. 6B) Tetracycline (FIG. 6C) Gentamicin. The greyscale plots are the no-antibiotic controls and the black contour plots are the antibiotic-treated data with the antibiotic concentration indicated at each plot. (FIG. 6D) PB-sQF results for FIGS. 6A-6C). […] For each antibiotic, the resistant breakpoints of Enterobacteriaceae are 16 μg/mL for tetracycline and gentamicin and 32 μg/mL for ampicillin.
This confirms that the gentamicin sensitivity of Mu14S observed after blood culture^(1) can also be observed on much shorter timescales with FAST. Overnight plating confirms that initial Mu14S counts were 3, 2, 5 and CFU/mL for tetracycline, gentamicin and ampicillin data after 10-fold dilution of the blood/bacteria mixture, corresponding to FAST being performed on whole blood samples containing ˜30, ˜20 and ˜50 CFU/mL. […] Thus, diluting bacterimic blood specimens 1:9 (v:v) directly into saponin-containing growth medium provides a path to ASTs within 8 hours from initial blood draw, with excellent results matching independent (36-44 hrs) MIC determinations from pure, overnight cultures (˜10^8 CFU/mL) that could only be initiated after (˜24 hr) positive blood culture.

The subject of experiment [3] is Lab-strain E. coli (ATCC). Nature of the experiment: FAST with low bacterial counts (500 counts by flow cytometry). Particulars: each antibiotic at MIC, ¼ MIC and 1/16 MIC, bars beyond the 99% confidence line. An excerpt:
FIG. 14. Bactericidal Antibiotic-induced changes for low counts of E. coli. Lab-strain E. coli (ATCC) ASTs performed with 500 counts by flow cytometry with gentamicin (Gen), penicillin G (PenG), and tetracycline (Tet) each at MIC, ¼ MIC and 1/16 MIC. This strain is seen to be sensitive to all three antibiotics, as the bars extend beyond the 99% confidence line.
While both morphology and growth inhibition occur upon exposure to antibiotics near the minimum inhibitory concentration, standard ASTs are based on growth inhibition alone. The presence of bacteria is clearly indicated by the presence of a particular scattering peak in the multidimensional histogram. This is much more sensitive and less affected by background than is shifts in a peak resulting from morphological changes upon antibiotic exposure. […] For even a few hundred counts, the presence of a bacterial population can be readily assessed with flow cytometry, but error bars and statistical distances must be properly determined relative to no-antibiotic controls. When too few counts for triplicate runs exist, control and each antibiotic exposure histograms are treated as probability distributions that are representative of the true mother distribution for each condition. Each histogram is binned (either adaptively with probability binning or using regular bins) and the distribution of data within each bin is determined. […]
For orientation: Flow cytometry measures light scatter and fluorescence of single cells or particles in a stream.

Consider Gentamicin, for which the “PB-sQF FAST susceptibility” value in experiment [1] was “susceptible”. The “scattered light histograms change” value in experiment [2] was “do not significantly change”. Also, the “PB-sQF AST susceptibility at low counts” value in experiment [3] was “sensitive”.

The record behind these values is patent US12061143B2, “Methods for rapid determinations of antibiotic susceptibility phenotypes” (priority 2018, dated 2024).
